Data from the supplement of paper PMC6045584.
± gives the standard deviation of the averaged measurements.

Key:
[1] = compound: Cc1c(N)nc([C@H](CC(N)=O)NC[C@H](N)C(N)=O)nc1C(=O)N[C@H](C(=O)N[C@H](C)[C@@H](O)[C@H](C)C(=O)N[C@H](C(=O)NCCc1nc(-c2nc(C(=O)NCCC[S+](C)C)cs2)cs1)[C@@H](C)O)[C@@H](OC1OC(CO)C(O)C(O)C1OC1OC(CO)C(O)C(OC(N)=O)C1O)c1cnc[nH]1 [BLEOMYCIN]; assay: surviving fraction relative to DMSO-only wells; higher = less growth inhibition; details: exposure time: 5 days
Outline: (§1)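 Lines were retained only if, across three screens, replicate Pearson r was >0.7 and median Z' was >0.3. Viability was measured as CellTiter-Glo luminescence and reported as surviving fraction relative to the median of DMSO-only wells. Readings followed 10 minutes at room temperature, after log-phase tumour cells seeded at 250–500 per well in 384-well plates had been exposed, from 24 hours after seeding, continuously for five days to inhibitors at 0.5, 1, 5, 10, 50, 100, 500 and 1000 nM.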

[2] = compound: Cn1ncnc1[C@H]1c2n[nH]c(=O)c3cc(F)cc(c23)N[C@@H]1c1ccc(F)cc1 [BMN-673]; assay: as above; details: exposure time: 5 days
Outline: as §1

Test System | surviving fraction ([1]; 0.5 nM) | surviving fraction ([1]; 1 nM) | surviving fraction ([1]; 5 nM) | surviving fraction ([1]; 10 nM) | surviving fraction ([1]; 50 nM) | surviving fraction ([1]; 100 nM) | surviving fraction ([1]; 500 nM) | surviving fraction ([1]; 1000 nM) | surviving fraction ([2]; 0.5 nM) | surviving fraction ([2]; 1 nM) | surviving fraction ([2]; 5 nM) | surviving fraction ([2]; 10 nM) | surviving fraction ([2]; 50 nM) | surviving fraction ([2]; 100 nM) | surviving fraction ([2]; 500 nM) | surviving fraction ([2]; 1000 nM)
HCC1395 BREAST | 0.865 ± 0.04 | 0.881 ± 0.14 | 0.84 ± 0.1 | 0.902 ± 0.042 | 0.823 ± 0.12 | 0.872 ± 0.074 | 0.761 ± 0.12 | 0.73 ± 0.065 | 1 ± 0.13 | 0.991 ± 0.081 | 0.86 ± 0.054 | 0.967 ± 0.045 | 0.892 ± 0.064 | 0.8195 ± 0.0048 | 0.715 ± 0.039 | 0.637 ± 0.12
HCC1806 BREAST | 0.771 ± 0.058 | 0.824 ± 0.1 | 0.682 ± 0.035 | 0.56 ± 0.0059 | 0.397 ± 0.0062 | 0.2757 ± 0.0015 | 0.108 ± 0.0021 | 0.0743 ± 0.0095 | 0.904 ± 0.043 | 0.875 ± 0.021 | 0.451 ± 0.035 | 0.313 ± 0.021 | 0.234 ± 0.0079 | 0.186 ± 0.0061 | 0.171 ± 0.017 | 0.168 ± 0.015
HCC1954 BREAST | 0.4128 ± 0.0025 | 0.433 ± 0.01 | 0.42 ± 0.043 | 0.456 ± 0.0085 | 0.467 ± 0.037 | 0.415 ± 0.064 | 0.364 ± 0.061 | 0.417 ± 0.01 | 1.01 ± 0.17 | 1.34 ± 0.34 | 1.25 ± 0.17 | 1.21 ± 0.12 | 0.907 ± 0.038 | 0.804 ± 0.042 | 0.71 ± 0.12 | 0.74 ± 0.072
HCT15 LARGE INTESTINE | 0.883 ± 0.065 | 0.887 ± 0.025 | 0.852 ± 0.011 | 0.85 ± 0.019 | 0.805 ± 0.022 | 0.66 ± 0.044 | 0.15 ± 0.019 | 0.104 ± 0.0095 | 1.09 ± 0.078 | 1.03 ± 0.086 | 1.06 ± 0.015 | 0.945 ± 0.021 | 0.584 ± 0.14 | 0.44 ± 0.058 | 0.146 ± 0.022 | 0.102 ± 0.0078
HELA CERVIX | 0.972 ± 0.026 | 0.932 ± 0.02 | 0.958 ± 0.024 | 0.963 ± 0.027 | 1.035 ± 0.0087 | 1.07 ± 0.061 | 0.803 ± 0.032 | 0.6 ± 0.062 | 1 ± 0.045 | 1 ± 0.058 | 1.07 ± 0.038 | 1.031 ± 0.0089 | 1.1 ± 0.11 | 1.14 ± 0.11 | 0.736 ± 0.037 | 0.606 ± 0.035
HOS BONE | 0.936 ± 0.0079 | 0.926 ± 0.023 | 0.9497 ± 0.0038 | 0.94 ± 0.017 | 1 ± 0.035 | 0.984 ± 0.014 | 0.589 ± 0.043 | 0.291 ± 0.039 | 1.04 ± 0.037 | 1 ± 0.018 | 0.976 ± 0.018 | 0.974 ± 0.036 | 0.993 ± 0.04 | 0.96 ± 0.036 | 0.596 ± 0.022 | 0.282 ± 0.026
HOSMNG BONE | 0.966 ± 0.025 | 0.983 ± 0.011 | 0.992 ± 0.015 | 1.01 ± 0.021 | 1.05 ± 0.048 | 1.03 ± 0.083 | 0.984 ± 0.029 | 0.845 ± 0.035 | 1.07 ± 0.056 | 1.04 ± 0.029 | 0.968 ± 0.017 | 1.01 ± 0.019 | 1.03 ± 0.031 | 1.05 ± 0.046 | 0.849 ± 0.047 | 0.645 ± 0.023
HSSYII SYNOVIAL | 0.797 ± 0.068 | 0.872 ± 0.045 | 0.768 ± 0.045 | 0.788 ± 0.017 | 0.6562 ± 0.0056 | 0.572 ± 0.029 | 0.224 ± 0.014 | 0.14 ± 0.0027 | 0.867 ± 0.022 | 0.819 ± 0.015 | 0.506 ± 0.026 | 0.34 ± 0.017 | 0.19 ± 0.0066 | 0.132 ± 0.011 | 0.0702 ± 0.0064 | 0.06017 ± 0.00029
HT1080 SOFT TISSUE | 1.001 ± 0.0036 | 0.965 ± 0.044 | 0.935 ± 0.018 | 0.886 ± 0.024 | 0.798 ± 0.071 | 0.7 ± 0.046 | 0.402 ± 0.0042 | 0.324 ± 0.012 | 1 ± 0.037 | 0.967 ± 0.042 | 0.73 ± 0.024 | 0.524 ± 0.02 | 0.375 ± 0.018 | 0.312 ± 0.0085 | 0.204 ± 0.0027 | 0.187 ± 0.014
HU09 BONE | 0.805 ± 0.015 | 0.923 ± 0.031 | 0.9 ± 0.084 | 0.831 ± 0.058 | 0.883 ± 0.083 | 0.761 ± 0.037 | 0.381 ± 0.013 | 0.246 ± 0.028 | 0.97 ± 0.066 | 0.978 ± 0.056 | 0.898 ± 0.067 | 0.812 ± 0.11 | 0.486 ± 0.046 | 0.437 ± 0.038 | 0.104 ± 0.018 | 0.058 ± 0.008
